Data: US10457672B2, “γ-diketones as Wnt/β-catenin signaling pathway activators” (Samumed, LLC, priority 2013, dated 2019)
pEC50: −log10 of the molar value.

Tested on: Wnt/β-catenin signaling pathway (Wnt-responsive SP5 promoter luciferase reporter in SW480 cells)
Assay: Wnt reporter (SP5 promoter-firefly luciferase) activation assay in SW480 cells
Assay type: cell-based
Conditions: Homo sapiens; SW480 colon cancer cells with SP5 promoter luciferase reporter; 24 h after compound addition; normalized to DMSO; concentration at half maximal activation
Procedure: Compounds that enhance the Wnt activity, or Activators, were assayed as follows. Reporter cell lines were generated by stably transducing cells of colon cancer cell lines (with a lentiviral construct that included a Wnt-responsive promoter driving expression of the firefly luciferase gene).
Lentiviral constructs were made in which the SP5 promoter, a promoter having eight TCF/LEF binding sites derived from the SP5 promoter, was linked upstream of the firefly luciferase gene. The lentiviral constructs also included a hygromycin resistance gene as a selectable marker. The SP5 promoter construct was used to transduce SW480 cells, a colon cancer cell line having a mutated APC gene that generates a truncated APC protein, leading to de-regulated accumulation of β-catenin.
Cultured SW480 cells bearing a reporter construct were distributed at approximately 10,000 cells per well into 384- or 96-well multiwell plates. Compounds from a small molecule compound library were then added to the wells in half-log dilutions using a maximum concentration of three or ten micromolar. A series of control wells for each cell type received only buffer and compound solvent DMSO. Twenty-four hours after the addition of compound, reporter activity for luciferase was assayed, for example, by addition of the BrightGlo luminescence reagent (Promega) and the Victor3 plate reader (Perkin Elmer). Readings were normalized to DMSO only treated cells, and any activities above DMSO were considered activation. Compounds were considered activators if reporter activities were 2× fold or greater than DMSO. EC50 is the concentration at half maximal activation.

Row | SMILES | pEC50
1 | COc1ccc(C(=O)CCC(=O)c2cccnn2)cc1OC [Compound 433, 1-(3,4-Dimethoxyphenyl)-4-(pyridazin-3-yl)butane-1,4-dione] | < 5.00
2 | O=C(CCC(=O)c1cccc2c1OCCO2)c1ccco1 [Compound 442, 1-(2,3-Dihydrobenzo[b][1,4]dioxin-5-yl)-4-(furan-2-yl)butane-1,4-dione] | 5.67
3 | Cc1ccccc1C(=O)CCC(=O)c1ccc2[nH]ccc2c1 [Compound 445, 1-(1H-indol-5-yl)-4-(o-tolyl)butane-1,4-dione] | 8.00
4 | Cc1ccc(C(=O)CCC(=O)c2ccc3[nH]ccc3c2)cc1 [Compound 447, 1-(1H-Indol-5-yl)-4-(p-tolyl)butane-1,4-dione] | < 5.00
5 | O=C(CCC(=O)c1cccs1)c1ccc2[nH]ccc2c1 [Compound 451, 1-(1H-Indol-5-yl)-4-(thiophen-2-yl)butane-1,4-dione] | 7.43
6 | Cc1ccccc1C(=O)CCC(=O)c1ccc2occc2c1 [Compound 455, 1-(Benzofuran-5-yl)-4-(o-tolyl)butane-1,4-dione] | 7.49
7 | Cc1cccc(C(=O)CCC(=O)c2ccc3occc3c2)c1 [Compound 456, 1-(Benzofuran-5-yl)-4-(m-tolyl)butane-1,4-dione] | 6.17
8 | Cc1ccc(C(=O)CCC(=O)c2ccc3occc3c2)cc1 [Compound 457, 1-(Benzofuran-5-yl)-4-(p-tolyl)butane-1,4-dione] | 5.54
9 | O=C(CCC(=O)c1ccco1)c1ccc2occc2c1 [Compound 462, 1-(Benzofuran-5-yl)-4-(furan-2-yl)butane-1,4-dione] | 6.37
10 | Cc1ccccc1C(=O)CCC(=O)c1ccc2ocnc2c1 [Compound 485, 1-(Benzo[d]oxazol-5-yl)-4-(o-tolyl)butane-1,4-dione] | < 5.00
11 | O=C(CCC(=O)c1ccccc1F)c1ccc2[nH]ncc2c1 [Compound 495, 1-(2-Fluorophenyl)-4-(1H-indazol-5-yl)butane-1,4-dione] | 8.10
12 | O=C(CCC(=O)c1ccc2[nH]ncc2c1)c1ccc(F)cc1 [Compound 497, 1-(4-Fluorophenyl)-4-(1H-indazol-5-yl)butane-1,4-dione] | 7.32
13 | O=C(CCC(=O)c1ccccc1C(F)(F)F)c1ccc2[nH]ncc2c1 [Compound 498, 1-(1H-Indazol-5-yl)-4-(2-(trifluoromethyl)phenyl)butane-1,4-dione] | 7.92
14 | Cc1ccc(C(=O)CCC(=O)c2ccc3[nH]ncc3c2)cc1 [Compound 503, 1-(1H-Indazol-5-yl)-4-(p-tolyl)butane-1,4-dione] | 6.31
15 | O=C(CCC(=O)c1ccccn1)c1ccc2[nH]ncc2c1 [Compound 507, 1-(1H-Indazol-5-yl)-4-(pyridin-2-yl)butane-1,4-dione] | 7.44
16 | O=C(CCC(=O)c1ccc2[nH]ncc2c1)c1ccccc1 [Compound 513, 1-(1H-Indazol-5-yl)-4-phenylbutane-1,4-dione] | 7.41
17 | O=C(CCC(=O)c1ccco1)c1ccc2[nH]ncc2c1 [Compound 515, 1-(Furan-2-yl)-4-(1H-indazol-5-yl)butane-1,4-dione] | 6.90
18 | Cc1ccccc1C(=O)CCC(=O)c1c[nH]c2ccccc12 [Compound 518, 1-(1H-Indol-3-yl)-4-(o-tolyl)butane-1,4-dione] | 6.19
19 | O=C(CCC(=O)c1c[nH]c2ccccc12)c1cccs1 [Compound 524, 1-(1H-Indol-3-yl)-4-(thiophen-2-yl)butane-1,4-dione] | 7.06
20 | Cc1ccccc1C(=O)CCC(=O)c1n[nH]c2ccccc12 [Compound 528, 1-(1H-Indazol-3-yl)-4-(o-tolyl)butane-1,4-dione] | 6.83
21 | Cc1cccc(C(=O)CCC(=O)c2n[nH]c3ccccc23)c1 [Compound 529, 1-(1H-Indazol-3-yl)-4-(m-tolyl)butane-1,4-dione] | 6.16
22 | O=C(CCC(=O)c1ccccc1F)c1ccccn1 [Compound 538, 1-(2-Fluorophenyl)-4-(pyridin-2-yl)butane-1,4-dione] | 7.20
